The target in assay [1] is T1, glycine binding site of NMDA receptors (Rattus norvegicus, UniProt P35439).
T1 construct: the cerebral cortex of an Slc-Wistar rat (250 to 300 g in weight) was homogenized; from tissue; host or cells: cerebral cortex of Slc-Wistar rat, washed and Triton X-100 treated membranes
Briefly: competitive binding to a glycine binding site of NMDA receptors ([3H]glycine). Details: species or system Slc-Wistar rat. As to conditions: for IC50: [3H]glycine 100 nM, rat cerebral cortex membrane, 0° C., 10 minutes. The procedure:
The ability of the compounds of the present invention to bind to a glycine binding site of the NMDA receptors can be measured, for example, using competitive assay in vitro as described below.
A rat cerebral cortex is homogenized with a buffer solution, and repeatedly centrifuged and resuspended in a buffer to prepare a membrane sample. The membrane sample is mixed with a solution containing [^3 H] glycine and a compound of interest and incubated for a predetermined period of time. Then, the reaction of the mixture is terminated by dilution and filtration using filter paper. Radioactivity on the filter paper is measured by a liquid scintillation counter. Non-specific binding is measured with 1 mM of non-radioactive glycine to work out IC50.
Assay for competitive binding of 6-nitro-7-(4-oxo-4H-pyridin-1-yl)-1,4-dihydroquinoxaline-2,3-dione (Ia) to a glycine binding site of NMDA receptors.
First, the cerebral cortex of an Slc-Wistar rat (250 to 300 g in weight) was homogenized in 5 mM Tris acetic acid buffer in 20-fold volume (containing 1 mM EGTA, 0.1 mM PMSF, and 0.01% Bacitracin, pH 7.4). The cerebral cortex was centrifuged at 50,000×g for 30 minutes and resuspended in a buffer. This process was repeated four times. The final suspension was stored at -80° C. The frozen suspension was thawed at room temperature and incubated with 0.08% Triton X-100 solution at […] for 10 minutes. The resultant suspension was then washed twice and suspended in 50 mM Tris-acetate buffer (pH 7.4) to give a membrane sample. The membrane sample was mixed with 100 nM [^3 H]glycine and solutions in a series of concentrations of Compound Ia obtained in Example 1. The mixtures were incubated at 0° C. for 10 minutes. Each of the mixtures was diluted and filtered using Whatman GF/C filter paper so as to terminate the reaction, and radioactivity of ^3 H remaining on the filter paper was measured by a scintillation counter for liquid. […] IC50 value of Compound Ia was determined using YM900 (a compound of Example 15 described in WO92/07847) as a control in the same way as described above.

The next assay has as its target AMPA receptors. Kind of assay: competitive binding to AMPA receptors ([3H]AMPA). Details: species or system Slc-Wistar rat. As to conditions: [3H]AMPA 30 nM, rat cerebral cortex membrane, 100 mM KSCN, 0° C., 30 minutes. The procedure:
The binding ability of the compounds of the present invention with respect to the AMPA receptors can be measured, for example, by the following competitive assay.
A rat cerebral cortex is homogenized with a buffer solution, and repeatedly centrifuged and resuspended in a buffer to prepare a membrane sample. The membrane sample is mixed with a solution containing [^3 H] AMPA and a compound of interest and incubated for a predetermined period of time. Then, the reaction of the mixture is terminated by dilution and filtration using filter paper. Radioactivity on the filter paper is measured by a liquid scintillation counter. Non-specific binding is measured with 1 mM of non-radioactive glutamate to work out IC50.
Assay for competitive binding of 6-nitro-7-(4-oxo-4H-pyridin-1-yl)-1,4-dihydroquinoxaline-2,3-dione (Ia) to AMPA receptors.
First, the cerebral cortex of an Slc-Wistar rat (250 to 300 g in weight) was homogenized in 30 mM Tris acetic acid buffer in 10-fold volume (containing 2.5 mM CaCl2, pH 7.1). […] Each of the mixtures was diluted and filtered using Whatman GF/C filter paper so as to terminate the reaction, and radioactivity of ^3 H remaining on the filter paper was measured by a scintillation counter for liquid. […] IC50 value of Compound Ia was determined using YM900 as a control in the same way as described above.

In assay [2] the test system is glycine binding site of the NMDA receptors. As to conditions: in words; cited from earlier work.

We go through 4 compounds from US5677305A, “Oxopyridinylquinoxaline derivative” (Shionogi & Co., Ltd., priority 1994, dated 1997).

The IC50 is the concentration at which inhibition is half-maximal. Higher therefore signals lower potency.

For the compound `O=c1ccn(-c2cc3[nH]c(=O)c(=O)[nH]c3cc2[N+](=O)[O-])cc1` [Ia, 6-nitro-7-(4-oxo-4H-pyridin-1-yl)-1,4-dihydroquinoxaline-2,3-dione], in assay [1] (Ia vs YM900, from Table 2), the “antagonistic effects as strong as that of YM900 (times)” value is listed as “approximately ten”. Also, the 50% inhibitory concentration (IC50) in assay [1] amounted to 6.6 µM; on AMPA receptors it was 100 nM.
With `O=c1[nH]c2cc(-n3ccnc3)c([N+](=O)[O-])cc2[nH]c1=O` [YM900, 6-imidazolyl-7-nitroquinoxaline-2,3-(1H, 4H)-dione], the half-inhibitory concentration (IC50) in assay [1] was 67 µM; on AMPA receptors, 280 nM.
In the case of `O=c1[nH]c2cc([N+](=O)[O-])c([N+](=O)[O-])cc2[nH]c1=O` [DNQX, 6,7-dinitroquinoxaline-2,3-dione], in assay [2], the “antagonistic effects on the glycine binding site of the NMDA receptors” value is given as “exhibit antagonistic effects on the glycine binding site of the NMDA receptors”.
Take `N#Cc1cc2[nH]c(=O)c(=O)[nH]c2cc1[N+](=O)[O-]` [CNQX, 6-cyano-7-nitroquinoxaline-2,3-dione]: the “antagonistic effects on the glycine binding site of the NMDA receptors” value in assay [2] is “exhibit antagonistic effects on the glycine binding site of the NMDA receptors”.
